# Test system: PTH-induced hypercalcemia rats
# Experiment: Hypercalcemia inhibiting effect: serum Ca++ lowering in PTH-induced hypercalcemia rats
# Format: in vivo, Wistar male rats
# Settings: blood 45 min after PTH, mean ± S.E., N=5
# Method: Typical effective ingredients according to the present invention were administered to parathyroid hormone (hereinafter referred to as "PTH")-induced hypercalcemia rats and, for each ingredient, the serum calcium level lowering effect was estimated. Test method: Human 1 to 34 PTH (obtained from the Peptide Institute) was intravenously administered at a dose of 30 µg/kg to 5-week-old Wistar male rats fasted for 20 hours. For the administration, PTH was dissolved in physiological saline containing 0.1% BSA (bovine serum albumin) and the solution was given to the rats in an amount of 5 ml/kg. The normal control group was given 0.1% BSA-containing physiological saline alone in the same manner. […] The blood samples were immediately centrifuged at 4°C, and 3,000 rpm (revolutions per minute) for 10 minutes. The thus-separated sera were measured for ionic calcium (Ca⁺⁺) concentration by means of a Ca⁺⁺ meter (Sera 250; Horiba Seisakusho).
# The compounds according to the invention were dissolved, using sodium hydroxide and hydrochloric acid, in physiological saline (pH 7.4), for subcutaneous administration, in such amounts that the dose amounted to 2 ml/kg, and, for oral administration, in distilled water (pH 7.4) so that the dose amounted to 5 ml/kg. They were administered 24 or 72 hours before PTH administration. The normal control group and the control group were given physiological saline or distilled water in the same manner.
# The results for each group were expressed in terms of mean ±S.E. (standard error) and comparison was made among the groups by testing by one-way analysis of variance. The significance level was taken at 5%.
# The compound of Example 6 was administered 24 hours before PTH administration while other compounds were administered 72 hours before PTH administration.
# [1] = oral administration, 10 mg/kg, 72 hours before PTH
# [2] = oral administration, 30 mg/kg, 72 hours before PTH
# [3] = oral administration, 100 mg/kg, 72 hours before PTH
# [4] = subcutaneous administration, 0.1 mg/kg, 72 hours before PTH
# [5] = subcutaneous administration, 0.3 mg/kg, 72 hours before PTH
# [6] = subcutaneous administration, 1.0 mg/kg, 72 hours before PTH
SMILES,"Serum Ca^++ (oral administration, 10 mg/kg, 24 hours before PTH) [mmol/L]","Serum Ca^++ (oral administration, 30 mg/kg, 24 hours before PTH) [mmol/L]","Serum Ca^++ (oral administration, 100 mg/kg, 24 hours before PTH) [mmol/L]","Serum Ca^++ (subcutaneous administration, 0.1 mg/kg, 24 hours before PTH) [mmol/L]","Serum Ca^++ (subcutaneous administration, 0.3 mg/kg, 24 hours before PTH) [mmol/L]","Serum Ca^++ (subcutaneous administration, 1.0 mg/kg, 24 hours before PTH) [mmol/L]",Serum Ca^++ [1],Serum Ca^++ [2],Serum Ca^++ [3],"Serum Ca^++ (subcutaneous administration, 0.03 mg/kg, 72 hours before PTH (30 µg/kg i.v.)) [m moles/liter]",Serum Ca^++ [4],Serum Ca^++ [5],Serum Ca^++ [6]
"O=P(O)(O)C(Nc1nccs1)P(=O)(O)O [Example 6, [(2-thiazolyl)amino]methylenebis(phosphonic acid)]",1.58 ± 0.03,1.54 ± 0.02,1.45 ± 0.03,1.49 ± 0.01,1.45 ± 0.01,1.41 ± 0.01,,,,,,,
"Cc1cnc(NC(P(=O)(O)O)P(=O)(O)O)o1 [Example 10, [(5-methyl-2-oxazolyl)amino]methylene bis(phosphonic acid)]",,,,,,,1.42 ± 0.03 m moles/liter,1.27 ± 0.03 m moles/liter,1.15 ± 0.04 m moles/liter,1.46 ± 0.01,1.29 ± 0.01 m moles/liter,,
"Cc1cnc(NC(P(=O)(O)O)P(=O)(O)O)s1 [Example 20, [(5-Methyl-2-thiazolyl)amino]methylene bis(phosphonic acid)]",,,,,,,1.39 ± 0.01 mmol/L,1.25 ± 0.01 mmol/L,1.12 ± 0.0 mmol/L,,0.95 ± 0.01 m moles/liter,0.93 ± 0.03 m moles/liter,0.92 ± 0.03 m moles/liter
"Cc1nc(NC(P(=O)(O)O)P(=O)(O)O)sc1C [Example 21, [(4,5-Dimethyl-2-thiazolyl)amino]methylene bis(phosphonic acid)]",,,,,,,,,,,1.48 ± 0.01 mmol/L,1.40 ± 0.01 mmol/L,1.30 ± 0.02 mmol/L
